From patent publication EP0182609A2, “Polycyclic biocidal compounds, their synthesis, formulations containing them” (THE WELLCOME FOUNDATION LIMITED, priority 1984, dated 1986)
Like-named read-outs stand apart in the source and are kept apart here.

Tests used:
P388/0 tumor cells = assay: Lymphocytic Leukemia P388/0 Test; assay type: in vivo, CD2-F1 mice; conditions: for Optimal Dose: intraperitoneally on days 1, 5, and 9 relative to tumor implant; for T/C x 100% (Excluding 30 Day survivors): median survival time treated/control at optimal dose, i.p. days 1, 5, and 9, criterion for activity >120%
Description: Methods for evaluating the antitumour activity of these compounds are essentially those used in the Tumor Panel by the Developmental Therapeutics Program, Division of Cancer Treatment, National Cancer institute, A. Goldin, et al., Methods in Cancer Research, Vol. XVI, p. 165, Academic Press (1979). Some modifications, in dose level and schedule have been made to increase the testing efficiency.
(§1) CD2-F1 mice, of the same sex, weighing 20t3g are used for this test. Control and test animals are injected intraperitoneally with a suspension of -10^6 viable P388/0 tumor cells on day 0. In each test several dose levels which bracket the LD20 for the compound are evaluated; each dose level group contains 6 animals. The test compounds are prepared either in physiologic saline containing 0.05% Tween 80 or distilled water containing 5% dextrose and are administered intraperitoneally on days 1, 5, and 9 relative to tumor implant. Doses are on a mg/kg basis according to individual animals' body weights. The day of death for each animal is recorded, the median identified for each group and the ratios of median survival time for treated (T)/control (C) groups are calculated. The criterion for activity is T/C x 100 >120%.

[1] = LD20 determined in the P388/0 test; assay type: in vivo
Method: as §1

Saccharomyces cerevisiae = assay: In vitro antifungal activity, minimum fungistatic concentration; assay type: cell-based; conditions: read-out: Minimum Fungistatic Concentration
Method: The minimum fungistatic concentrations of compounds of the formula (I) against various fungi were obtained using standard techniques. The tests were carried out in either medium A or medium B (see below) and the standard used in each instance was Miconazole nitrate.

[2] = intraperitoneally on days 1, 5, and 9, tumor-bearing mice

Compound | Optimal Dose (P388/0 tumor cells) | T/C x 100% (Excluding 30 Day survivors) (P388/0 tumor cells) | LD20 [1, 2] | LD20 ([1]; mouse, in vivo, ip) | MIC (Saccharomyces cerevisiae) | MIC (Saccharomyces cerevisiae; medium A or medium B)
CC(CO)(CO)NCc1c2ccccc2cc2c1ccc1ccccc12 [Example 1, 2-((7-Benz[a]anthracenylmethyl)amino)-2-methyl-1,3-propanediol methanesulfonate] | 220 mg/kg | +270% | 180 mg/kg | – | – | –
CC(CO)(CO)NCc1c2ccccc2c2ccc3cccc4ccc1c2c43 [Example 2, 2-[(Benzo[a]pyren-6-ylmethyl)amino]-2-methyl-1,3-propanediol methanesulfonate] | 111 mg/kg | +204% | 100 mg/kg | – | – | –
CC(CO)(CO)NCc1c2ccccc2cc2cc3ccccc3cc12 [Example 3C, 2-[(5-naphthacenylmethyl)amino]-2-methyl-1,3-propanediol methanesulfonate] | 60 mg/kg | +195% | – | 50 mg/kg | – | –
CC(CO)(CO)NCc1c2c(cc3ccccc13)Cc1ccccc1-2 [Example 4B, 2-[(11H-Benzo[b]fluoren-5-ylmethyl)amino]-2-methyl-1,3-propanediol methanesulfonate] | 225 mg/kg | +280% | – | 300 mg/kg | – | –
CC(CO)(CO)NCc1cc2ccc3ccccc3c2c2ccccc12 [Example 5B, 2[(Benzo[c]phenanthren-5-ylmethyl)amino]-2-methyl-1,3-propanediol methanesulfonate] | 15 mg/kg | +140% | 10 mg/kg | – | ≤ 0.4 µg/mL | –
CC(CO)(CO)NCc1c2ccccc2c(Cl)c2cc3ccccc3cc12 [Example 6B, 2-[(12-Chloro-5-naphthacenylmethyl)amino]-2-methyl-1,3-propanediol methanesulfonate] | 75 mg/kg | +150% | – | 70 mg/kg | – | –
CC(CO)(CO)NCc1c2ccccc2c(Cl)c2cc3ccccc3cc12.Cl [Example 6C, 2-[(12-chloro-5-naphthacenylmethyl)amino]-2-methyl-1,3-propanediol hydrochloride] | 40 mg/kg | +150% | 70 mg/kg | – | – | –
Clc1ccc(COC(Cn2ccnc2)c2ccc(Cl)cc2Cl)c(Cl)c1 (centres unmarked) [Miconazole Nitrate, Miconazole nitrate, reference compound] | – | – | – | – | – | ≤ 0.4 µg/mL
